Results on 6 molecules are retold here after patent EP4810498A1, “MEDICATION FOR TREATING SEVERE MALARIA AND SYNTHESIS METHOD THEREFOR” (Institute of Chinese Materia Medica, China Academy of …, priority 2023, dated 2025).

Data set [1] deals with Plasmodium falciparum 3D7. As to the kind of experiment: SYBR Green assay, growth inhibition of Plasmodium falciparum cultured in vitro. The format is cell-based. How it is done: Plasmodium falciparum in the ring stage was synchronized. Smearing was carried out and the infection rate was counted. The synchronized parasitized red blood cells, healthy red blood cells and mediums were matched in a reasonable ratio, resulting in an in vitro culture system of plasmodia (ring bodies, 2 to 4 hours-old) with a hematocrit of 2% and an infection rate of 1%. […] A1-A10 was paved with 25 µl of drugs (with 8 complex wells for each drug) and mixed evenly, and then diluted in multiple proportions (Ax-Hx). Except for A12-H12, 50 µL of a plasmodium culture solution was spread in all the other wells; and A12-H12 was spread with 50 µl of healthy red blood cells (in the medium with a hematocrit of 2%). […] 100 µl of a lysis buffer was added to each of the wells and put into a drawer to avoid light for 1 h.
In this experiment, SYBR Green assay was used to determine the median inhibitory concentration (IC50) value of the drug for treating Plasmodium falciparum 3D7. Nonlinear regression was used to calculate the value by means of software graphpad prism 8.0 (the value was equal to average value plus or minus standard error), and a four-parameter logistic fitting curve was used. Each value in the curve was equal to average value plus or minus standard error in eight biological repetitive experiments.

The test system of data set [2] is Plasmodium berghei ANKA strain. The data set can be described thus: Survival rate of cerebral malaria model mice. The class given is in vivo, C57BL/6J mice. The note with it: nasal drip, four consecutive days, 28 days of observation. The source says: (§1) Experimental study on the antimalarial activity of Artesunazine (Example Ia-1) in vitro and vivo. I. Protection of Artesunazine on mice infected by Plasmodium berghei ANKA strain. (I) Experimental materials: • 1. Animals: C57BL/6J, weighing 16-18 g, 10 in each group, 50 in total. • 2. Plasmodium strain: Plasmodium berghei ANKA strain, donated by Professor Zhao Ya of Air Force Medical University of the People's Liberation Army of China (The Fourth Military Medical University), was preserved in our laboratory by blood transmission or freezing. • 3. Drugs and preparation methods: Artesunazine and a positive control drug artesunate were dissolved in a mixed solvent of polyethylene glycol 400 (PEG400) and water (PEG400:water=4:1), serving as a preparation for immediate use. (II) Experimental methods • 1. Plasmodium resuscitation and passage: A Plasmodium berghei ANKA strain frozen in liquid nitrogen was taken out and placed in a water bath kettle at 37°C. After melting, it was immediately intraperitoneally inoculated into C57BL/6J mice (0.2 mL/mouse). When the infection rate of the breeding mice reached 15-30%, their eyeballs were removed and blood was collected in an anticoagulant tube. After shaking well, the blood was transmitted to offspring C57BL/6J mice with a 1 mL syringe at an injection dose of 0.2 mL/mouse. • 2. Plasmodium inoculation: C57BL/6J mice were weighed and fed adaptively. When the infection rate of offspring C57BL/6J mice reached 15-30%, the total number of red blood cells and the number of pRBCs were counted after their eyeballs were removed and blood was collected. The blood was injected intraperitoneally into model group C57BL/6J mice at an injection dose of 0.2 mL (including 1×10^7 pRBCs) per mouse, which was the 0th day (D0) of inoculation. • 3. Animal grouping: After inoculation, the experimental mice were randomly divided into 5 groups, including a model (M) group, high, medium and low dose Artesunazine groups (i.e., 40 mg/kg, 20 mg/kg, and 10 mg/kg Artesunazine), and an artesunate group (i.e., 15.6 mg/kg AS, clinically equivalent dose). The dosage of the medium dose Artesunazine group (20mg/kg Artesunazine) is equivalent to that of the artesunate group (15.6 mg/kg). There are 10 mice in each group, a total of 50 mice. • 4. Determination of survival rate From the 0th day of inoculation, the death of mice was observed every day for 28 consecutive days. Survival rate = (Number of surviving mice)/(Number of experimental mice) × 100% [formula] • 5. Determination of recurrence rate After inoculation, the mice were randomly divided into groups and administered via nasal drip for 3 h. […] The mouse recurrence rate was calculated by the ratio of the number of mice with recurrence to the total number of mice. […]

For data set [3], the system named is Plasmodium berghei ANKA strain. As to the kind of experiment: Recurrence rate of cerebral malaria model mice (blood smear). The format is in vivo, C57BL/6J mice. The source says:
Experimental study on the antimalarial activity of Artesunazine (Example Ia-1) in vitro and vivo. I. Protection of Artesunazine on mice infected by Plasmodium berghei ANKA strain. (I) Experimental materials: • 1. Animals: C57BL/6J, weighing 16-18 g, 10 in each group, 50 in total. • 2. Plasmodium strain: Plasmodium berghei ANKA strain, donated by Professor Zhao Ya of Air Force Medical University of the People's Liberation Army of China (The Fourth Military Medical University), was preserved in our laboratory by blood transmission or freezing. • 3. Drugs and preparation methods: Artesunazine and a positive control drug artesunate were dissolved in a mixed solvent of polyethylene glycol 400 (PEG400) and water (PEG400:water=4:1), serving as a preparation for immediate use. (II) Experimental methods • 1. Plasmodium resuscitation and passage: A Plasmodium berghei ANKA strain frozen in liquid nitrogen was taken out and placed in a water bath kettle at 37°C. After melting, it was immediately intraperitoneally inoculated into C57BL/6J mice (0.2 mL/mouse). When the infection rate of the breeding mice reached 15-30%, their eyeballs were removed and blood was collected in an anticoagulant tube. After shaking well, the blood was transmitted to offspring C57BL/6J mice with a 1 mL syringe at an injection dose of 0.2 mL/mouse. • 2. Plasmodium inoculation: C57BL/6J mice were weighed and fed adaptively. When the infection rate of offspring C57BL/6J mice reached 15-30%, the total number of red blood cells and the number of pRBCs were counted after their eyeballs were removed and blood was collected. The blood was injected intraperitoneally into model group C57BL/6J mice at an injection dose of 0.2 mL (including 1×10^7 pRBCs) per mouse, which was the 0th day (D0) of inoculation. • 3. Animal grouping: After inoculation, the experimental mice were randomly divided into 5 groups, including a model (M) group, high, medium and low dose Artesunazine groups (i.e., 40 mg/kg, 20 mg/kg, and 10 mg/kg Artesunazine), and an artesunate group (i.e., 15.6 mg/kg AS, clinically equivalent dose). The dosage of the medium dose Artesunazine group (20mg/kg Artesunazine) is equivalent to that of the artesunate group (15.6 mg/kg). There are 10 mice in each group, a total of 50 mice. • 4. Determination of survival rate From the 0th day of inoculation, the death of mice was observed every day for 28 consecutive days. Survival rate = (Number of surviving mice)/(Number of experimental mice) × 100% [formula] • 5. Determination of recurrence rate After inoculation, the mice were randomly divided into groups and administered via nasal drip for 3 h. After four consecutive days of administration, blood smear test began at D4. A small drop of blood was taken from the tail tip of a mouse and dropped onto a glass slide. The blood drop was pushed to one end at a certain angle with the edge of another glass slide to make a thin blood film with appropriate thickness. After the thin blood film was air-dried, it was fixed with methanol and placed until completely air-dried. After a Giemsa stain solution was diluted at a ratio of 1:9 for staining (completely covering the fixed thin blood film) for 20 min, the thin blood film was rinsed under a faucet, and the water on the surface of the film was quickly absorbed with filter paper. A drop of cedar oil was dropped onto a glass slide for examination under a 100x oil microscope to count the number of parasitized red blood cells contained in 1000 red blood cells. The mouse recurrence rate was calculated by the ratio of the number of mice with recurrence to the total number of mice. Recurrence rate = (Number of mice with recurrence)/(Number of experimental mice) × 100% [formula] • 6. RMCBS score determination A rapid mouse coma behavior scale (RMCBS) was used to evaluate the neurological function of experimental mice. […]

Data set [4] relates to Plasmodium berghei ANKA strain. As to the kind of experiment: Rapid mouse coma behavior scale (RMCBS) score of cerebral malaria model mice. The class given is in vivo, C57BL/6J mice.
Source text: as §1

Data set [5] relates to Plasmodium berghei ANKA strain. As to the kind of experiment: Anal temperature of cerebral malaria model mice. The format is in vivo, C57BL/6J mice. The settings on record: compared with the AS group (P<0.001). The source says: Experimental study on the antimalarial activity of Artesunazine (Example Ia-1) in vitro and vivo. I. Protection of Artesunazine on mice infected by Plasmodium berghei ANKA strain. (I) Experimental materials: • 1. Animals: C57BL/6J, weighing 16-18 g, 10 in each group, 50 in total. • 2. Plasmodium strain: Plasmodium berghei ANKA strain, donated by Professor Zhao Ya of Air Force Medical University of the People's Liberation Army of China (The Fourth Military Medical University), was preserved in our laboratory by blood transmission or freezing. • 3. Drugs and preparation methods: Artesunazine and a positive control drug artesunate were dissolved in a mixed solvent of polyethylene glycol 400 (PEG400) and water (PEG400:water=4:1), serving as a preparation for immediate use. (II) Experimental methods • 1. Plasmodium resuscitation and passage: A Plasmodium berghei ANKA strain frozen in liquid nitrogen was taken out and placed in a water bath kettle at 37°C. After melting, it was immediately intraperitoneally inoculated into C57BL/6J mice (0.2 mL/mouse). […] When the infection rate of offspring C57BL/6J mice reached 15-30%, the total number of red blood cells and the number of pRBCs were counted after their eyeballs were removed and blood was collected. […] The mouse recurrence rate was calculated by the ratio of the number of mice with recurrence to the total number of mice. […]

In data set [6] the test system is Plasmodium berghei ANKA strain. The data set can be described thus: Body weight of cerebral malaria model mice. The format is in vivo, C57BL/6J mice.
Source text: as §1

The conditions of data set [7]: 80% polyethylene glycol 400 solution, 40°C, dark.
Protocol: 160.2 mg of Artesunazine was weighed and put into a penicillin bottle, 8 mL of a 80% polyethylene glycol 400 solution was added, and the Artesunazine was completely dissolved by ultrasonic treatment, resulting in about 20.25 mg/mL Artesunazine solution. Subsequently, the penicillin bottle filled with the solution was sealed, covered with aluminum foil paper for light avoidance treatment, and placed in a stability test box at 40°C; and 0.5 mL to 25 mL of the solution was sampled into volumetric flasks on days 0, 3, 7, and 10, respectively. After diluting with methanol and shaking well, the content of the Artesunazine was determined by an ultra performance liquid chromatography (UPLC) method.
The UPLC determination conditions for the Artesunazine are as follows: Instrument: ultra performance liquid chromatography Waters ACQUITY UPLC, chromatographic column: ACQUITY UPLC HSS T3 Column (100 Å, 1.8 µm, 2.1 mm×100 mm), detection wavelength: 295 nm, mobile phase: acetonitrile-0.1% phosphoric acid water (35:65), flow rate: 0.3 ml/min, column temperature: 30°C, sample room temperature: 25°C, injection volume: 3 µL. […]
Setting [8] is: Plasmodium falciparum standard strain 3D7, cultured for 72 h, read-out: IC50.

In general, IC50 refers to the concentration that gives 50% inhibition.

Like-named read-outs stand apart in the source and are kept apart here.

`Cc1nc(C)c(COC(=O)CCCCCC(=O)OC2OC3OC4(C)CCC5C(C)CCC(C2C)C35OO4)nc1C` [Compound Ia-5, (3R, 5aS, 6R, 9R, 10R, 12R, 12aR)-3,6,9-trimethyldecahydro-12h-3, 12-epoxy [1, 2] dioxopyran [4,3-i] isobenzopyran-10-yl ((3,5,6-trimethylpyrazine-2-yl)methyl) pimelate]: in data set [1] (setting [8]), the IC50 is 2.95 nM.
With `Cc1nc(C)c(COC(=O)CCC(=O)OC2OC3OC4(C)CCC5C(C)CCC(C2C)C35OO4)nc1C` [Compound Ia-1, (3R, 5aS, 6R, 9R, 10R, 12R, 12aR)-3,6,9-trimethyldecahydro-12h-3, 12-epoxy [1, 2] dioxopyran [4,3-i] isobenzopyran-10-yl ((3,5,6-trimethylpyrazine-2-yl)methyl) succinate], the survival rate amounted to 50% in data set [2] (10 mg/kg Artesunazine (low dose)), 90% in data set [2] (20 mg/kg Artesunazine (medium dose)) and 100% in data set [2] (40 mg/kg Artesunazine (high dose)). Moreover, the “Recurrence rate (%) D4” value was determined as 10% in data set [3] (10 mg/kg), 0% in data set [3] (20 mg/kg) and 0% in data set [3] (40 mg/kg). Further, in data set [3] (10 mg/kg, D7), the “Recurrence rate (%) D7” value is 80%. Moreover, the “Recurrence rate (%) D28” value in data set [3] (10 mg/kg) stood at 100%; in data set [3] (20 mg/kg), 10%; in data set [3] (40 mg/kg) it was 10%. Besides, the RMCBS score was 18.40±0.48 points in data set [4] (10 mg/kg), “around 20 points” in data set [4] (20 mg/kg) and “around 20 points” in data set [4] (40 mg/kg). In addition, the temperature result in data set [5] (20 mg/kg) and in data set [5] (40 mg/kg) was “better maintained the temperature” each time. The body weight is given as 16.66±0.45 in data set [6] (10 mg/kg, at the end of the observation); “no significant decrease” in data set [6] (20 mg/kg, throughout the observation period); “no significant decrease” in data set [6] (40 mg/kg, throughout the observation period). Moreover, the IC50 in data set [1] (setting [8]) was found to be 7.36 nM. For the same molecule, the “color of the solution” value in data set [7] is on record as “basically unchanged”.
Regarding `Cc1nc(C)c(COC(=O)CCCCCCC(=O)OC2OC3OC4(C)CCC5C(C)CCC(C2C)C35OO4)nc1C` [Compound Ia-7, (3R, 5aS, 6R, 9R, 10R, 12R, 12aR)-3,6,9-trimethyldecahydro-12h-3, 12-epoxy [1, 2] dioxopyran [4,3-i] isobenzopyran-10-yl ((3,5,6-trimethylpyrazine-2-yl)methyl) suberate], the IC50 in data set [1] (setting [8]) is 50.7 nM.
Consider `C[C@@H]1CC[C@H]2[C@@H](C)C(=O)O[C@@H]3O[C@@]4(C)CC[C@@H]1[C@]32OO4` [artemisinin, reference compound], for which, in data set [1] (Plasmodium falciparum, 3D7, standard antimalarial drug given for comparison, source of the value not stated, read-out: IC50), the IC50 is roughly 11.8 nM.
Consider `Cc1nc(C)c(COCCOC2OC3OC4(C)CCC5C(C)CCC(C2C)C35OO4)nc1C` [Compound Ia-8, 2,3,5-trimethyl-6-[(2-(((3R, 5aS, 6R, 9R, 12R, 12aR)-3,6,9-trimethylbicyclo [3.2.1]heptane-12H-3, 12-epoxide [1, 2]dioxacycloheptane [4,3-i]isochromene-10-yl)oxy)ethoxy)methyl] pyrazine], for which, in data set [1] (setting [8]), the IC50 worked out at 107 nM.
Consider `Cc1nc(C)c(COC(=O)C2CCN(CC(=O)OC3OC4OC5(C)CCC6C(C)CCC(C3C)C46OO5)CC2)nc1C` [Compound Ia-9, (3,5,6-trimethylpyrazine-2-yl) methyl 1-(2-oxy-2-(((3R, 5aS, 6R, 9R, 10S, 12R, 12aR)-3,6,9-trimethyldecahydro-12H-3, 12-epoxy [1, 2]dioxacycloheptane-10-yl)oxy)ethyl) piperidine-4-formate], for which half-maximal inhibition in data set [1] (Plasmodium falciparum, 3D7, 72 h) (IC50) was put at 32.7 nM.
